{"source": "patent US12275685B2", "about": "“Oligo-benzamide analogs and their use in cancer treatment” (Board of Regents, The University of Texas System, priority 2018, dated 2025)", "key": {"[1]": {"test_system": "estrogen receptor-positive breast cancer", "assay": "Growth inhibition of ER-positive breast cancer", "format": "cell-based"}, "[2]": {"test_system": "BC cells expressing MT-ERα (MCF-7, ZR-75, T47-D)", "assay": "Cell titer glo antiproliferative assay in MT-ERα BC cells", "format": "cell-based", "from_the_text": "(§1) FIG. 52: Comparative efficacy of TX-542 and SERDs in BC cells expressing WT and/or MT ERα: Using CRISPR-Cas9, both copies of WT ERα genes were knocked out in ZR-75 and T47-D, while only one copy of WT Era was knocked out in MCF-7 cells. Following knockout of WT ERα clones with stable expression of either Y537S ERα MT or the D538G ERα MT were selected. […] ERα-negative TNBC cells (SUM-159 and MDA-MB-231) were used as controls. Dose response curves were generated for ERX-11, TX-542 and SERDs using cell titer glo assays. IC50 values for each cell line and drug were calculated and tabulated. Tam=tamoxifen, ICI=fulvestrant, GDC-0810=Genentech SERD, AZD-9496 Astra Zeneca SERD, RAD-1901=Radius SERD, Palbo=Palbociclib. IC50 values<50 nM are shown in red.\n(§2) TX-542. TX-542 was potent (IC50˜20-50 nM) as an antiproliferative agent against expressing MT-ERα, both in genetically modified MCF-7 cells with one WT-ERα allele and one MT-ERα allele introduced by CRISPR and genetically modified ZR-75 or T47-D cells in which both copies of WT-ERα alleles were replaced using CRISPR with MT-ERα. TX-542 had no activity against ER-null (SUM-159 or MDA-MB-231 cells) or non-tumorigenic breast epithelial cells, such as human mammary epithelial cells (HMEC). […] In addition, these agents are not able to consistently target all the MT-ERα forms in distinct genetic contexts, as shown in FIG. 52 and as reported by others."}, "[3]": {"test_system": "ER-null (SUM-159 or MDA-MB-231 cells)", "assay": "Antiproliferative assay in ER-null cells", "format": "cell-based", "from_the_text": "as §1, §2"}, "[4]": {"test_system": "human mammary epithelial cells (HMEC)", "assay": "Antiproliferative assay of TX-542 in HMEC", "format": "cell-based", "procedure": "as §2"}, "Protein binding": {"assay": "Protein binding", "format": "in vitro ADME"}, "[5]": {"test_system": "BC cells expressing WT-ERα and MT-ERα", "assay": "Clonogenic assay", "format": "cell-based", "details": "100 nM", "procedure": "FIG. 53: Effect of 100 nM TX-542 on clonogenic survival of WT-ERα and MT-ERα BC cell lines.\n(§3) The 200 nM dose for these drugs reflects the level at which each of these drugs has a significant effect on spheroid formation in the MCF-7 WT-ERa cells. Taken together, these studies indicate that TX-542 has significant activity against both WT-ERα and MT-ERα driven ERα+ BC cell lines and is a worthwhile candidate for further study."}, "MCF-7 MT-ERα Y537S cells": {"test_system": "MCF-7 MT-ERα Y537S cells", "format": "cell-based", "details": "200 nM"}, "[6]": {"test_system": "MT-ERα expressing BC cells", "assay": "Apoptosis by annexin staining", "format": "cell-based", "details": "within 72 h after treatment, 200 nM", "procedure": "FIG. 55: Effect of 200 nM TX-542 on apoptosis of MT-ERα expressing BC cells.\nas §3"}, "[7]": {"test_system": "MCF-7 MT-ERα Y537S and D538G cells", "format": "cell-based", "details": "comparators at 200 nM in MCF-7 MT-ERα Y537S cells"}, "[8]": {"assay": "Pharmacokinetic profile of TX-542", "format": "in vivo", "procedure": "FIG. 58: PK properties of TX-542 indicate a half-life in plasma of 8 h and accumulation over time in tumor.\n(§4) To establish the pharmacokinetic (PK) profile of TX-542, the inventors worked with the UTSW preclinical pharmacology core to characterize pharmacologic properties of TX-542 (FIG. 58). These studies indicated an 8-h half-life of TX-542 in the plasma, with drug detectable in both the liver and kidney after intraperitoneal (i.p.) administration."}, "[9]": {"test_system": "WT-ERα ZR-75 or MT-ERα MCF-7 xenografts", "assay": "TX-542 in ERα BC xenografts", "format": "in vivo, nude mice", "procedure": "FIGS. 59A-B: MCF-7 MT-ERa D538G and Y537S xenograft tumors were injected into the mammary fat pad of nude mice. Once the tumors were established (100 mm^3), treatment with either vehicle or TX-542 (10 mg/kg/ip) was commenced and their effect on tumor growth and mice body weights were graphed (n=9 per group).\nas §4"}, "ERα": {"test_system": "ERα", "format": "cell-based", "details": "MT-ERα, 200 nM"}, "MT-ERα [10]": {"test_system": "MT-ERα", "assay": "ERE luciferase reporter gene assay, TX-542", "format": "cell-based", "details": "minimal promoter with three copies of ERE"}, "MT-ERα [11]": {"test_system": "MT-ERα", "assay": "ChIP of MT-ERα DNA binding, TX-542", "format": "cell-based"}, "[12]": {"test_system": "BC cells expressing MT-ERα", "assay": "Boyden chamber invasion assay", "format": "cell-based", "from_the_text": "FIG. 62: Effect of TX-542 on invasiveness of BC cells expressing Erα mutants in a Boyden chamber assay.\n(§5) Since MT-ERα is primarily expressed in metastases, the inventors used metastatic models to evaluate effect of TX-542 on the development and progression of metastasis."}, "[13]": {"test_system": "MT-ERα expressing BC metastasis", "assay": "Metastatic models (intracardiac, intratibial injection)", "format": "in vivo, mice", "procedure": "FIG. 63: Following intracardiac injection of luciferase-tagged ZR-75 MT-ERα Y537S tumors, mice are imaged five at a time under 2% isoflurane gas anesthesia. Each mouse is injected with D-Luciferin and imaged 10-15 minutes after the injection. BLI signal is quantified in regions of interest (ROIs) drawn around tumors, specific areas (for example cranial, thoracic or abdominal), whole body or tissues ex vivo and the signal is expressed as photons per second, representing the flux radiating omni-directionally from the user-defined region. Images are analyzed using Living Image 4.3.1 (PerkinElmer, Waltham, MA) software. Once the tumors were established (40,000 luminescene counts at 30 seconds exposure), mice were treated either with vehicle or TX-542. […] Relative luminescence counts are mapped (middle panel). Mice were sacrificed once symptomatic and the survival curves for vehicle treated (black) or TX-542 treated (red) are graphed (right panel) (n=6 in each group).\nOnce tumors were established, daily treatment of mice with either vehicle or TX-542 (10 mg/kg/ip) were performed. Results are shown and graphed (n=6).\nas §5"}}, "note": "Where two headings read alike, the source gives them in different places.", "data": [{"smiles": "NCCC(=O)Nc1ccc(C(=O)Nc2ccc(C(=O)NCCc3ccc4ccccc4c3)cc2OCC2CCCCC2)cc1OCCO", "note": "[TX-542]", "values": [{"measurement": "growth inhibition of ER-positive breast cancer", "setting": "[1]", "result": "strong growth inhibition"}, {"measurement": "specificity for ER-positive cells", "setting": "[1]", "result": "high specificity"}, {"measurement": "IC50", "setting": "[2]; MCF-7, ZR-75 or T47-D cells expressing MT-ERα, read-out: IC50, antiproliferative", "result": "20 to 50", "unit": "nM"}, {"measurement": "IC50", "setting": "[2]; MT-ERα alone (ZR-75 and T47-D) or with WT-ERa (MCF-7), read-out: IC50 in multiple MT-ERα models", "result": "< 50", "unit": "nM"}, {"measurement": "activity against ER-null cells", "setting": "[3]", "result": "no activity"}, {"measurement": "activity against non-tumorigenic breast epithelial cells", "setting": "[4]", "result": "no activity"}, {"measurement": "bound to proteins", "setting": "Protein binding", "result": 75, "unit": "%"}, {"measurement": "clonogenic survival", "setting": "[5]", "result": "significantly reduced the survival"}, {"measurement": "soft agar colony formation", "setting": "MCF-7 MT-ERα Y537S cells", "result": "potently reduced soft agar colony formation"}, {"measurement": "apoptotic cell death", "setting": "[6]", "result": "induced apoptotic cell death"}, {"measurement": "spheroid size or architecture", "setting": "[7]", "result": "disrupted spheroid architecture"}, {"measurement": "level in tumor tissue", "setting": "[8]; 24 h after the last dose, daily i.p. 10 mg/kg", "result": "> 0.1", "unit": "mg/g"}, {"measurement": "time to steady state levels in tumor", "setting": "[8]; MCF-Y537S xenografts, daily i.p. 10 mg/kg", "result": 5, "unit": "days"}, {"measurement": "half-life", "setting": "[8]; mouse, plasma, intraperitoneal", "result": 8, "unit": "h"}, {"measurement": "concentration at 24 h", "setting": "[8]; mouse, tumor, intraperitoneal, 10 mg/kg, 24 h after the last dose, read-out: corresponding tumor concentration", "result": "> 200", "unit": "nM"}, {"measurement": "growth of established xenografts", "setting": "[9]; 10 mg/kg/ip", "result": "potent activity"}, {"measurement": "mouse body weights", "setting": "[9]; 10 mg/kg/ip", "result": "no effect on mouse body weights"}, {"measurement": "renal and liver parameters, histopathology, clinical chemistry", "setting": "[9]; treated animals", "result": "lack of change in renal and liver parameters"}, {"measurement": "onset of effect on MT-ERα levels", "setting": "ERα", "result": "not noticeable until 24 h"}, {"measurement": "ERE-driven transcription", "setting": "MT-ERα [10]", "result": "decrease transcription"}, {"measurement": "MT-ERα DNA binding", "setting": "MT-ERα [11]", "result": "blocks both basal and estradiol-induced MT-ERα DNA binding"}, {"measurement": "invasion of BC cells expressing MT-ERα", "setting": "[12]", "result": "potently affects the invasion"}, {"measurement": "growth of lung and bone metastasis", "setting": "[13]; 10 mg/kg/ip", "result": "decrease the growth of lung metastasis"}, {"measurement": "animals that formed mets", "setting": "[13]; within 4 weeks, treatment started immediately after intracardiac injection", "result": "1/6"}]}]}
